From US9422235B2, “Sulfonamide derivatives with therapeutic indications” (Pharmos Corporation, priority 2006, dated 2016)
Read-outs that look alike come from different tables or passages of the source.

Key:
[1] = biological target: human CB2 receptor (Homo sapiens (Human), UniProt P34972); experiment: [35S]GTPγS-binding assay, functional activity at the human CB2 receptor; type: biochemical
Protocol: Functional activity of compounds of the invention toward the cannabinoid receptors was determined by stimulation of [^35S]-GTPγS binding using membranes from HEK-293 cells expressing the hCB1 receptor and membranes expressing the hCB2 receptor derived from either Sf9 (PerkinElmer) or from HEK-293 cells. Activities were compared to that of the known cannabinoid full agonist CP55940 (Alexis). The purpose of this experiment is to determine the potency of the compounds of the invention as agonists or antagonists toward each of the receptor tested.
[^35]-GTPγS binding reactions were performed at 30° C. in 96-well plates containing 5-10 μg membrane protein suspended in 0.1 ml binding buffer (20 mM HEPES-NaOH, pH 7.4, 5 mM MgCl2, 100 mM NaCt, 0.2% (w/v) bovine serum albumin) supplemented with 50 μM GDP and 0.06 nM-10 μM of the compound being tested. Binding was initiated by the addition of [^35S]GTPγS (0.3 nM final concentration). Incubations were performed for 90 minutes and were terminated by filtration on GF/C filter plates (PerkinElmer). Filters were washed ten times with ice-cold wash buffer (20 mM HEPES-NaOH, pH 7.4, 10 mM sodium pyrophosphate). Non-specific binding was measured in the presence of 15 μM GTPγS.
Assays were performed in duplicates. Data was analyzed by plotting on the X axis the log concentration against percent of specific [^35S]GTPγS binding out of basal [^35S]GTPγS binding on the Y axis, non-linear regression is then performed using GraphPad Prism, version 3.0 (GraphPad, San Diego, Calif.) to calculate the EC50 and Emax of the compound. The EC50 value represents the concentration at which there is 50% [^35S]GTPγS binding and the Emax value the upper plateau of the curve.
CP55940 is a full agonist of the human and rat CB2 receptors. […] Full or partial agonism at the receptor was determined relative to the Emax value of CP55940.

[2] = tested on: Male Sprague Dawley rats; experiment: Chronic inflammatory pain, intra-articular CFA in knee, weight bearing; type: in vivo, rat
[3] = tested on: Male Sprague Dawley rats; experiment: Thermal analgesic activity in CFA-induced inflammatory acute pain (Plantar test); type: in vivo, rat; conditions: one hour post daily administration, third day of treatment
Protocol: The thermal analgesic effect induced by compounds of the present invention on inflammatory acute pain was assessed. Inflammatory pain and paw edema were induced by intraplantar injection of 50% Complete Freund's Adjuvant (CFA) suspension in the animal hind paw.
Male Sprague Dawley rats (average body weight 200 g, Harlan, Israel) were transiently sedated by placement on dry ice for the duration of the injections. Rats were injected subcutaneously, in the subplantar region of one (right) paw with 0.15 ml of 50% w/v CFA in sterile saline. […] Test compounds were administered i.p. at initial single dose of 10-60 mg/kg (depending on the test compound), and volume dose of 5 ml/kg, 24 hours post CFA injection. Vehicle and Celecoxib treated animals were used as controls. Each treatment group comprised at least six animals.
Prior to, 48 hours post induction of inflammatory pain and one hour after daily drug administration, the animals reaction to pain stimuli was tested by thermal stimulus. The thermal analgesia was assessed using a Plantar test (Ugo Basile). At the end of the study, animals were euthanized.
Results, expressed as percent of baseline value (% reversal) or withdrawal latency, are depicted in FIGS. 9 and 10. […] Results are expressed as mean±SEM for each treatment group and the differences among those groups are analyzed by T-test. […]

[4] = tested on: female BALB/c mice; experiment: Dextran Sulfate Salt (DSS)-induced acute colitis; type: in vivo, mouse; conditions: for % Survival / Clinical score / Percentage change in body weight: i.p.
Text: In order to test the activity of compounds of the invention in an animal model of inflammatory bowel disease, female BALB/c mice 9-12 week old (Harlan, Israel) were used for Dextran Sulfate Salt (DSS)-induced acute colitis studies. Mice (ten per treatment group) were provided with a solution of tap water containing 5% DSS (MW. 36000-50000; MP Biomedicals, LLC) ad libitum over an 8 day period. The DSS solution was replenished every other day and switched to tap water at day 8. Body weight was measured daily. The clinical scores combined both macroscopic (diarrhea, body weight, mortality) as well as microscopic (pathological) scores. Diarrhea score in the studies for each animal represented the daily summary of stool consistency (scored as: 0, normal; 1, soft but still formed; 2, very soft; 3, diarrhea) and the presence of blood in stool (scored: 0, None; 1, visible blood traces in stool; 2, signs of blood; 3, rectal bleeding). At the end of experiment animals were euthanized and their colons are examined for signs of pathological damage. The pathological scores, colon length and weight were determined from the cecum to the anus (scored: 0, normal; 1, slight inflammation; 2, moderate inflammation and/or edema; 3, heavy inflammation and/or ulceration and/or edema).
Two compounds were tested in DSS-induced colitis in mice, compounds 4 and 58. […] Results are expressed as mean ± SEM for each treatment group and the differences among those groups are analyzed by T-test. Two crosshatches indicate a p value below 0.01 and three indicate a p value below 0.001. Asterisks denote statistical significant weight loss relative to animal weight in the beginning of the experiment.
Alternatively, compound 58 (30 mg/kg) was administered orally from the first day of DSS administration (day 1) until the end of the experiment (day 10).

[5] = Cell line C2-4, Emax of compound divided by Emax of CP55940, read-out: % Activity (relative to CP55,940)
[6] = Cell line C2-4, upper plateau of [35S]GTPγS binding curve
[7] = read-out: % Activity (relative to CP55,940)
[8] = Cell line C2-4, Emax of compound divided by Emax of CP55940
[9] = Cell line C2-4, upper plateau of [35S]GTPγS binding curve, read-out: Emax (%)

Chain of human CB2 receptor (P34972 whole entry): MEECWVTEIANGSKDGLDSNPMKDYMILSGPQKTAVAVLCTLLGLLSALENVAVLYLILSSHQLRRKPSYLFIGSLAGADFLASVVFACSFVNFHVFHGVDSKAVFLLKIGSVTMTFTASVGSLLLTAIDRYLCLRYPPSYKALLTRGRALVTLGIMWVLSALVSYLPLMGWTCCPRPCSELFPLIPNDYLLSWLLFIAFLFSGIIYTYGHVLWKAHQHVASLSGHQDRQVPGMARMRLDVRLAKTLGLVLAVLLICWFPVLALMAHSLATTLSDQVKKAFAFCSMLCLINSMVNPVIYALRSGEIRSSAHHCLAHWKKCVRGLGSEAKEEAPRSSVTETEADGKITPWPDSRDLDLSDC

Row | Compound | Emax [1, 5] [%] | Emax (%) [1, 6] [%] | Emax [1] [%] | Emax [1, 7] [%] | further results
1 | O=S(=O)(NCC1CC1)c1ccc(NC2CCCCCCC2)cc1C(F)(F)F [Compound 88, 4-Cyclooctylamino-N-cyclopropylmethyl-2-trifluoromethyl-benzenesulfonamide] | 9.8 | 5 | – | – | –
2 | COc1ccc(Nc2ccc(S(=O)(=O)NCC3CC3)c(C(F)(F)F)c2)c(OC)c1 [Compound 44, N-cyclopropylmethyl-4-(2,4-dimethoxy-phenylamino)-2-trifluoromethyl-benzenesulfonamide] | – | – | 5 | 9.8 | –
3 | CC(C)(NS(=O)(=O)c1ccc(NC2CC3CCC2C3)cc1C(F)(F)F)C1CC1 (stereo not drawn) [Compound 74, 4-(Bicyclo[2.2.1]hept-2-ylamino)-N-(1-cyclopropyl-1-methyl-ethyl)-2-trifluoromethyl-benzenesulfonamide] | – | – | 30 | 45 | –
4 | O=S(=O)(NCC1CC1)c1ccc(NN2CCCCCC2)cc1C(F)(F)F [Compound 105, 4-(Azepan-1-ylamino)-N-cyclopropylmethyl-2-trifluoromethyl-benzenesulfonamide] | – | – | 34 | 43 | –
5 | CCCCCCC(C)(C)c1ccc([C@@H]2C[C@H](O)CC[C@H]2CCCO)c(O)c1 [CP55940, reference compound] | – | – | 50 to 70 | – | –
6 | CC(C)(NS(=O)(=O)c1ccc(NC2CCCCC2)cc1C(F)(F)F)C1CC1 [Compound 108, 4-Cyclohexylamino-N-(1-cyclopropyl-1-methyl-ethyl)-2-trifluoromethyl-benzenesulfonamide] | 49.3 | 39 | – | – | –
7 | O=S(=O)(NCC1CCOCC1)c1ccc(Nc2ccc(Cl)cc2Cl)cc1C(F)(F)F [Compound 35, 4-(2,4-Dichloro-phenylamino)-N-(tetrahydro-pyran-4-ylmethyl)-2-trifluoromethyl-benzenesulfonamide] | – | – | 19 | 35 | reversal of the CFA induced hypersensitivity (weight bearing) ([2]; 15 mg/kg, b.i.d, three days of administration): significant reversal
8 | N-Cyclopropylmethyl-4-(piperidin-1-ylamino)-2-trifluoromethyl-benzenesulfonamide [Compound 94] | – | 20 | – | – | % Activity (relative to CP55,940) [1, 8]: 30%; reversal of thermal pain threshold (percent of baseline value, % reversal) ([3]; 60 mg/kg i.p.): reversed the pain threshold
9 | O=S(=O)(NCC1CCCO1)c1ccc(NC2CC3CCC2C3)cc1C(F)(F)F (stereo not drawn) [Compound 26, 4-(Bicyclo[2.2.1]hept-2-ylamino)-N-(tetrahydro-furan-2-ylmethyl)-2-trifluoromethyl-benzenesulfonamide] | 35 | – | – | – | Emax [1, 9]: 19%
10 | O=S(=O)(NCC1CC1)c1ccc(Nc2ccc(Cl)cc2Cl)cc1C(F)(F)F [Compound 3, N-Cyclopropylmethyl-4-(2,4-dichloro-phenylamino)-2-trifluoromethyl-benzenesulfonamide] | – | – | 30 | 46 | –
11 | O=S(=O)(NCC1CC1)c1ccc(NC2CCCCCC2)cc1C(F)(F)F [Compound 87, 4-Cycloheptylamino-N-cyclopropylmethyl-2-trifluoromethyl-benzenesulfonamide] | – | – | 21 | 29 | –
12 | O=S(=O)(NCC1CCOCC1)c1ccc(NC2CC3CCC2C3)cc1C(F)(F)F (stereo not drawn) [Compound 41, 4-(Bicyclo[2.2.1]hept-2-ylamino)-N-(tetrahydro-pyran-4-ylmethyl)-2-trifluoromethyl-benzenesulfonamide] | 36 | – | – | – | Emax [1, 9]: 26%; analgesic effect (% reversal) ([2]; 15 mg/kg b.i.d., day 1 and 2 post administration): 30%
13 | 4-(Bicyclo[2.2.1]hept-2-ylamino)-N-cyclopropylmethyl-2-trifluoromethyl-benzenesulfonamide [Compound 58] | – | 29 | – | – | % Activity (relative to CP55,940) [1, 8]: 40%; % Survival ([4]; 10 mg/kg): 100%; Clinical score ([4]; 10 mg/kg): 4.33 ± 0.22; Percentage change in body weight ([4]; 10 mg/kg): −12.9 ± 2.6 %; mortality ([4]; 30 mg/kg orally, day 1 to day 10): not observed; clinical score over time ([4]; 30 mg/kg orally, day 1 to day 10, from day 8 until end of experiment): statistical significant amelioration; pathological score ([4]; 30 mg/kg orally, day 1 to day 10, not statistically significant versus vehicle): 1.9±0.5; % Survival ([4]; 30 mg/kg): 100%; Clinical score ([4]; 30 mg/kg): 4.58 ± 0.2; Percentage change in body weight ([4]; 30 mg/kg): −13.9 ± 2.3 %; efficacy in DSS-induced colitis (weight loss, clinical signs or gross pathology) ([4]; administered intraperitoneally): modest efficacy; reversal of thermal pain threshold (withdrawal latency) ([3]; 30 mg/kg i.p.): reversed the pain threshold
